Reference: publication PMC2752052 (Analytical biochemistry, 2009)

Biological target: T1, Sirt1 (Homo sapiens, UniProt Q96EB6)
T1 sequence (Q96EB6 2-747): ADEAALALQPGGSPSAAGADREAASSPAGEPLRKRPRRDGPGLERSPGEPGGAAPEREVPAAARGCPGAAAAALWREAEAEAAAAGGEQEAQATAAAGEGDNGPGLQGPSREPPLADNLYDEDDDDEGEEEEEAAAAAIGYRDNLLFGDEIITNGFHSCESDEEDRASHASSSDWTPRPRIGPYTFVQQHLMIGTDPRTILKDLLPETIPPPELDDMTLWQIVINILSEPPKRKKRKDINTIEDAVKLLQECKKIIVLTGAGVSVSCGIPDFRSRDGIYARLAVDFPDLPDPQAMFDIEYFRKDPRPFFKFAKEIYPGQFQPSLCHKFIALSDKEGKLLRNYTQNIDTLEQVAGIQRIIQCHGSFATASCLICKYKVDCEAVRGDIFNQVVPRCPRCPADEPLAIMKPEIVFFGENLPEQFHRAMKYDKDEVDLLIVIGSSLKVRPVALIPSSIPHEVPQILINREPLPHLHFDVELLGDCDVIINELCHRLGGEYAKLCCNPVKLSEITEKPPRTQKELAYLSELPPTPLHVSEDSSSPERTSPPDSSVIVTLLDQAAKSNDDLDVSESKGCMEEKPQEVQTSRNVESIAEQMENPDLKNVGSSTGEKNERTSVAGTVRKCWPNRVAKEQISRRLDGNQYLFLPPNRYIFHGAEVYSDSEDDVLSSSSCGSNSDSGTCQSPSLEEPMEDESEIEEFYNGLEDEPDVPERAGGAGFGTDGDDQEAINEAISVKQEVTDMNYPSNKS
Assay: nicotinamidase/glutamate dehydrogenase coupled assay
Assay type: biochemical

SMILES: Nc1ncnc2c1ncn2[C@@H]1O[C@H](COP(=O)(O)OP(=O)(O)OC[C@H]2OC(O)[C@H](O)[C@@H]2O)[C@@H](O)[C@H]1O (stereo partly shown) [ADP-ribose]
- IC50: 77 ± 4 µM
